Structures can show the parent of a compound that is named as a salt. Where two headings read alike, the source gives them in different places.
Legend:
mouse TAAR1 = mouse TAAR1 (Mus musculus (Mouse), UniProt Q923Y8); assay: Radioligand binding assay on mouse TAAR1; conditions: read-out: Ki (μM) mouse
Protocol: (§1) For the construction of expression plasmids the coding sequences of human, rat and mouse TAAR1 were amplified from genomic DNA essentially as described by Lindemann et al.. The Expand High Fidelity PCR System (Roche Diagnostics) was used with 1.5 mM Mg^2+ and purified PCR products were cloned into pCR2.1-TOPO cloning vector (Invitrogen) following the instructions of the manufacturer. PCR products were subcloned into the pIRESneo2 vector (BD Clontech, Palo Alto, Calif.), and expression vectors were sequence verified before introduction in cell lines.
(§2) HEK293 cells (ATCC #CRL-1573) were cultured essentially as described by Lindemann et al. (2005). For the generation of stably transfected cell lines HEK293 cells were transfected with the pIRESneo2 expression plasmids containing the TAAR coding sequences (described above) with Lipofectamine 2000 (Invitrogen) according to the instructions of the manufacturer, and 24 hrs post transfection the culture medium was supplemented with 1 mg/ml G418 (Sigma, Buchs, Switzerland). After a culture period of about 10 d clones were isolated, expanded and tested for responsiveness to trace amines (all compounds purchased from Sigma) with the cAMP Biotrak Enzyme immunoassay (EIA) System (Amersham) following the non-acetylation EIA procedure provided by the manufacturer.
Radioligand Binding Assay on Mouse TAAR1
(§3) Membrane Preparation and Radioligand Binding.
(§4) HEK-293 cells stably expressing mouse TAAR1 were maintained at 37° C. and 5% CO2 in DMEM high glucose medium, containing fetal calf serum (10%, heat inactivated for 30 min at 56° C.), penicillin/streptomycin (1%), and 375 μg/ml geneticin (Gibco). Cells were released from culture flasks using trypsin/EDTA, harvested, washed twice with ice-cold PBS (without Ca^2+ and Mg^2+), pelleted at 1,000 rpm for 5 min at 4° C., frozen and stored at −80° C. Frozen pellets were suspended in 20 ml HEPES-NaOH (20 mM, pH 7.4) containing 10 mM EDTA and homogenized with a Polytron (PT 6000, Kinematica) at 14,000 rpm for 20 s. The homogenate was centrifuged at 48,000×g for 30 min at 4° C. Subsequently, the supernatant was removed and discarded, and the pellet resuspended in 20 ml HEPES-NaOH (20 mM, pH 7.4) containing 0.1 mM EDTA using the Polytron (20 s at 14,000 rpm). This procedure was repeated and the final pellet resuspended in HEPES-NaOH containing 0.1 mM EDTA and homogenized using the Polytron. Typically, aliquots of 2 ml membrane portions were stored at −80° C. With each new membrane batch the dissociation constant (Kd) was determined via a saturation curve. […] Nonspecific binding was defined as the amount of ^3[H]—(S)-4-[(ethyl-phenyl-amino)-methyl]-4,5-dihydro-oxazol-2-ylamine bound in the presence of 10 μM unlabeled ligand. All compounds were tested at a broad range of concentrations (10 pM to 10 μM) in duplicates. […] The 96 deep well plates were incubated for 1 hr at 4° C. Incubations were terminated by rapid filtration through Unifilter-96 plates (Packard Instrument Company) and glass filters GF/C (Perkin Elmer) presoaked for 1 hr in polyethylenimine (0.3%) and washed 3 times with 1 ml of cold binding buffer. After addition of 45 μl of Microscint 40 (PerkinElmer) the Unifilter-96 plate was sealed and after 1 hr the ratioactivity counted using a TopCount Microplate Scintillation Counter (Packard Instrument Company).

rat TAAR1 = rat TAAR1 (Rattus norvegicus (Rat), UniProt Q923Y9); assay: Radioligand binding assay on rat TAAR1; conditions: read-out: Ki (μM) rat
Protocol: as §1, §2
Radioligand Binding Assay on Rat TAAR1
as §3
as §4, with “rat” for “mouse”

[1] = mouse TAAR1, HEK-293 membranes, first value of cell mouse/rat
[2] = rat TAAR1, HEK-293 membranes, second value of cell mouse/rat

Sequence of mouse TAAR1 (Q923Y8 whole entry): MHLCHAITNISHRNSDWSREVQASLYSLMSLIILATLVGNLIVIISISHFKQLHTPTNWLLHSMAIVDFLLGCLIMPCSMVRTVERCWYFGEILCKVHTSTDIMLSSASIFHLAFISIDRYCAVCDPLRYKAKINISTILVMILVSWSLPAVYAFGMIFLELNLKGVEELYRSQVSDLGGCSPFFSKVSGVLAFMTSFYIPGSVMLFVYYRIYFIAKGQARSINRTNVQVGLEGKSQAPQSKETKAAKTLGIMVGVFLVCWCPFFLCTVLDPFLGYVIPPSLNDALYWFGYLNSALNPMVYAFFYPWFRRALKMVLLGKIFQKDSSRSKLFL
Sequence of rat TAAR1 (Q923Y9 whole entry): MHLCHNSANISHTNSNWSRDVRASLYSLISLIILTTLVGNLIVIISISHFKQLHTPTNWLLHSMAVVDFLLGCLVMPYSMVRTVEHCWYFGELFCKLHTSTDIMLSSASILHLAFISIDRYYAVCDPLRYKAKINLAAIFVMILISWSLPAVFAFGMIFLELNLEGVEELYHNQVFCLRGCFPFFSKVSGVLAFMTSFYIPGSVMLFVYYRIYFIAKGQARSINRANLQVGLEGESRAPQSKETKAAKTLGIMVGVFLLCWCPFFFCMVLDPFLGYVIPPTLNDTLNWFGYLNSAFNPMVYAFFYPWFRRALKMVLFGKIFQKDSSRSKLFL

SMILES | Ki (mouse TAAR1; [1]) | Ki (rat TAAR1; [2]) | Ki (rat TAAR1) | Ki (mouse TAAR1)
O=C(Nc1ccc(C2CCNC2)cc1)OC1CCC(F)(F)CC1 (racemic) [Example 45, (RS)-(4-Pyrrolidin-3-yl-phenyl)-carbamic acid 4,4-difluoro-cyclohexyl ester] | 0.0131 µM | 0.0077 µM | – | –
O=C(Nc1ccc(C2CCNC2)cc1)OCc1ccc(F)cc1 (racemic) [Example 47, (RS)-(4-Pyrrolidin-3-yl-phenyl)-carbamic acid 4-fluoro-benzyl ester hydrochloride] | 0.0019 µM | 0.0048 µM | – | –
CCOc1ccc(C(=O)Nc2ccc(C3CCNC3)cc2)cc1 (racemic) [Example 52, (RS)-4-Ethoxy-N-(4-pyrrolidin-3-yl-phenyl)-benzamide hydrochloride] | 0.0017 µM | 0.0109 µM | – | –
CCCc1ccc(C(=O)Nc2ccc(C3CCNC3)cc2)cc1 (racemic) [Example 53, (RS)-4-Propyl-N-(4-pyrrolidin-3-yl-phenyl)-benzamide hydrochloride] | 0.0016 µM | 0.0053 µM | – | –
C#Cc1ccc(C(=O)Nc2ccc(C3CCNC3)cc2)cc1 (racemic) [Example 54, (RS)-4-Ethynyl-N-(4-pyrrolidin-3-yl-phenyl)-benzamide hydrochloride] | 0.0021 µM | – | 0.0152 µM | –
N#Cc1ccc(C(=O)Nc2ccc(C3CCNC3)cc2)cc1 (racemic) [Example 55, (RS)-4-Cyano-N-(4-pyrrolidin-3-yl-phenyl)-benzamide hydrochloride] | – | 0.0745 µM | – | 0.0048 µM
O=C(Nc1ccc(C2CCNC2)cc1)c1ccc(Cl)c(Cl)c1 (racemic) [Example 56, (RS)-3,4-Dichloro-N-(4-pyrrolidin-3-yl-phenyl)-benzamide hydrochloride] | 0.0008 µM | 0.0018 µM | – | –
O=C(Nc1ccc(C2CCCNC2)cc1)c1ccc(Cl)cc1 (racemic) [Example 58, (RS)-4-Chloro-N-(4-piperidin-3-yl-phenyl)-benzamide hydrochloride] | 0.0007 µM | 0.0022 µM | – | –
COC(C(=O)Nc1ccc(C2CCNC2)cc1)c1ccc(Cl)cc1 (racemic) [Example 60, (RS)-2-(4-Chloro-phenyl)-2-methoxy-N—((RS)-4-pyrrolidin-3-yl-phenyl)-acetamide] | 2.83 µM | 0.0457 µM | – | –
CC(C(=O)Nc1ccc(C2CCNC2)cc1)c1cccc(C(F)(F)F)c1 (racemic) [Example 61, (RS)—N—((RS)-4-Pyrrolidin-3-yl-phenyl)-2-(3-trifluoromethyl-phenyl)-propionamide] | 0.0172 µM | 0.0033 µM | – | –
O=C(Nc1ccc([C@@H]2CNC[C@H]2O)cc1)c1ccc(Cl)cc1 (racemic) [Example 63, 4-Chloro-N-[4-((3RS,4SR)-4-hydroxy-pyrrolidin-3-yl)-phenyl]-benzamide hydrochloride] | 0.0837 µM | 0.174 µM | – | –
CC(C(=O)Nc1ccc(C2CCNC2)cc1)c1cccc(C(=O)c2ccccc2)c1 (racemic) [Example 64, (RS)-2-(3-Benzoyl-phenyl)-N—((RS)-4-pyrrolidin-3-yl-phenyl)-propionamide] | 0.124 µM | 0.0215 µM | – | –
COc1cccc(CC(=O)Nc2ccc(C3CCNC3)cc2)c1 (racemic) [Example 65, (RS)-2-(3-Methoxy-phenyl)-N-(4-pyrrolidin-3-yl-phenyl)-acetamide hydrochloride] | 0.125 µM | 0.352 µM | – | –
O=C(Nc1cccc(C2CNCCO2)c1)c1ccc(Cl)cc1 (racemic) [Example 72, (RS)-4-Chloro-N-(3-morpholin-2-yl-phenyl)-benzamide hydrochloride] | 0.507 µM | 0.107 µM | – | –
O=C(Nc1ccc(C2CCCNC2)cc1)c1ccc(Cl)nc1 (racemic) [Example 74, (RS)-6-Chloro-N-(4-piperidin-3-yl-phenyl)-nicotinamide hydrochloride] | 0.0049 µM | 0.0672 µM | – | –
O=C(Nc1ccc(C2CCCNC2)cc1)c1ccc(Cl)cn1 (racemic) [Example 78, (RS)-5-Chloro-pyridine-2-carboxylic acid (4-piperidin-3-yl-phenyl)-amide hydrochloride] | 0.0067 µM | 0.0466 µM | – | –
O=C(Nc1ccc(C2CCCNC2)cc1)Nc1ccc(Cl)nc1 (racemic) [Example 79, (RS)-1-(6-Chloro-pyridin-3-yl)-3-(4-piperidin-3-yl-phenyl)-urea hydrochloride] | 0.0075 µM | 0.0924 µM | – | –

Continued, in another order:

Ki (mouse TAAR1; [1]) | Ki (rat TAAR1; [2]) | SMILES | Ki (rat TAAR1) | Ki (mouse TAAR1)
0.137 µM | 0.645 µM | N#Cc1cccc(CC(=O)Nc2ccc(C3CCNC3)cc2)c1 (racemic) [Example 66, (RS)-2-(3-Cyano-phenyl)-N-(4-pyrrolidin-3-yl-phenyl)-acetamide] | – | –
0.147 µM | 0.102 µM | CC(C(=O)Nc1ccc(C2CCNC2)cc1)c1cccc(C#N)c1 (racemic) [Example 68, (RS)-2-(3-Cyano-phenyl)-N—((RS)-4-pyrrolidin-3-yl-phenyl)-propionamide] | – | –
0.0048 µM | 0.023 µM | O=C(Nc1ccc([C@@H]2CNC[C@@H]2F)cc1)c1ccc(Cl)cc1 (racemic) [Example 69, 4-Chloro-N-[4-((3RS,4RS)-4-fluoro-pyrrolidin-3-yl)-phenyl]-benzamide hydrochloride] | – | –
0.0056 µM | 0.0257 µM | O=C(Nc1ccc(C2CCNC2)cc1)c1ccc(-n2cccn2)nc1 (racemic) [Example 73, (RS)-6-Pyrazol-1-yl-N-(4-pyrrolidin-3-yl-phenyl)-nicotinamide hydrochloride] | – | –
0.0255 µM | 1.48 µM | O=C(Nc1ccc(C2CCNC2)cc1)c1ncc(F)cc1F (racemic) [Example 75, (RS)-3,5-Difluoro-pyridine-2-carboxylic acid (4-pyrrolidin-3-yl-phenyl)-amide hydrochloride] | – | –
0.136 µM | 0.296 µM | O=C(Nc1ccc(C2CCNC2)cc1)c1nc2ccccc2[nH]1 (racemic) [Example 76, (RS)-1H-Benzoimidazole-2-carboxylic acid (4-pyrrolidin-3-yl-phenyl)-amide hydrochloride] | – | –
0.0017 µM | 0.0238 µM | O=C(Nc1ccc(C2CCNC2)cc1)c1ccc(Cl)cc1F (racemic) [Example 77, (RS)-4-Chloro-2-fluoro-N-(4-pyrrolidin-3-yl-phenyl)-benzamide hydrochloride] | – | –
0.0227 µM | 0.0124 µM | O=C(Nc1ccc(C2CCNC2)cc1)Nc1cccc2cccnc12 (racemic) [Example 81, (RS)-1-(4-Pyrrolidin-3-yl-phenyl)-3-quinolin-8-yl-urea] | – | –

— patent US9452980B2, “Substituted benzamides” (Hoffmann-La Roche Inc., priority 2009, dated 2016)
